According to patent publication US20230032101A1, “FIVE-MEMBERED HETEROCYCLIC OXOCARBOXYLIC ACID COMPOUND AND MEDICAL USE THEREOF” (Shanghai Institute of Materia Medica, Chinese Academy of …, priority 2019, published 2023):

Legend:
human-derived STING = human-derived STING (Homo sapiens, UniProt Q86WV6); settings: cited from earlier work
[1] = system: CT26 mouse colon cancer cells; experiment: CT26 colon cancer subcutaneous xenograft model in vivo; settings: Balb/C mice, intratumoral injection (IT), days 1/2/3/4/7; FIG. 2
Experimental: […] When the tumor volume grew to about 100 mm^3, the mice were randomly divided into 5 groups, 6 mice in each group.
(§1) Experimental results were evaluated in the form of tumor volume growth curves.

[2] = system: type I interferon pathway in murine Raw-lucia cells; experiment: Activation of type I interferon pathway in murine Raw-lucia cells (QUANTI-Luc luminescence); type: cell-based; settings: Mus musculus; 50 μM, 24 h; Compound Luminescence/Control Luminescence; ≥2 times considered valid; read-out: Fold Change
Experimental: Raw-lucia cells were counted, the cell concentration was adjusted to 5×10^5/mL, and 180 μL of cells were added to each well for incubation. 20 μL of compound diluted with physiological saline was added to each well of a 96-well cell culture plate after cells were adhered, the concentration of the compound was 50 μM/100 μM.
After 24 hours, 20 μL of the culture medium was took out from each well to a new 96-well plate with bottom-transmitting, 50 μL of the luciferase detection reagent QUANTI-Luc™ was added, and the […] was measured immediately (in the dark). The experiment was repeated twice.

[3] = system: type I interferon pathway (ISG) in human THP1-Blue-ISG cells; experiment: Activation of type I interferon pathway (ISG) in human THP1-Blue-ISG cells (Quanti-Blue, OD650); type: cell-based; settings: Homo sapiens, THP1-Blue ISG; 10 μM, 24 h; Compound OD650/Control OD650; ≥2 times considered valid; read-out: Fold Change
Experimental: 20 μL of compound diluted with physiological saline was added to each well of a 96-well cell culture plate, the positive control compound was ADU-S100, and the solvent control group was added with 20 μL of physiological saline containing DMSO. THP1-Blue-ISG cells were counted, the cell concentration was adjusted to 5×10^5/mL, and 180 μL of cells were added to each well for incubation. Therefore, the final volume of each test well was 200 μL, the content of DMSO was 0.1%/0.5%, the test concentration of the compound was 10/50 μM, and the positive control compound was ADU-S100 at a final concentration of 10 μM, and incubated for 24 hours for detection.
After 24 hours, 20 μL of the culture solution was took out from each well to a new 96-well plate, 180 μL of chromogenic solution Quanti-Blue was added, placed in a 37° C. incubator, and the OD650 value was measured after 0.5-2 hours. The experiment was repeated twice.
The experimental results were used to evaluate the ability of compounds to induce the secretion of type I interferon pathway (ISG) by the Fold Change, which was calculated as follows:
Fold Change=Compound OD650/Control OD650, wherein the results of ≥2 times were considered valid.

[4] = system: 4T1 mouse breast cancer cells; experiment: 4T1 breast cancer orthotopic tumor model in vivo; settings: Balb/C mice, intratumoral injection (IT), days 1/2/3/4/7; FIG. 1
Experimental: 6-8 week old Balb/C mice were inoculated with 2.5×10^5 4T1 mouse breast cancer cells in the mammary fat pad of each mouse. When the tumor volume grew to about 100 mm^3, the mice were randomly divided into 5 groups, 6 mice in each group.
as §1

human-derived STING, sequence (Q86WV6 whole entry H232R): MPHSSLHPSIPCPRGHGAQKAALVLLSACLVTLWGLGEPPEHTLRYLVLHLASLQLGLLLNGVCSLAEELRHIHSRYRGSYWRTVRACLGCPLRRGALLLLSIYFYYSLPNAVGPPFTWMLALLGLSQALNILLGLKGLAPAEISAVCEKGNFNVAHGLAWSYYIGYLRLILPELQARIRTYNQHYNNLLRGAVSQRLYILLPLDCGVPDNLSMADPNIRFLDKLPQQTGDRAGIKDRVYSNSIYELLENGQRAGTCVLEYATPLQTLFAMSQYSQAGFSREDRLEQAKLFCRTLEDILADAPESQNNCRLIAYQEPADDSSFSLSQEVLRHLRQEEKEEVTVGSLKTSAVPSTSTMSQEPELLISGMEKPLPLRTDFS

Row | Structure (SMILES) | agonistic effect on STING (human-derived STING) | anti-tumor effect (tumor volume growth curves) [1] | tumor regression [1] | fold induction at 50 µM [2] | fold induction at 10 µM [3] | anti-tumor effect (tumor volume growth curves) [4] | tumor regression [4]
1 | Cc1ccc2c(=O)c3cccc(CC(=O)O)c3oc2c1C [DMXAA] | ineffective | – | – | – | – | – | –
2 | O=C(O)CCC(=O)c1cc(-c2c[nH]c3ccccc23)cs1 [I′-31, 4-(4-(1H-indol-3-yl)thiophen-2-yl)-4-oxobutyric Acid] | – | significant anti-tumor effect | tumor regression effect is achieved in some mouse tumor models | 21.8 | 13.8 | significant anti-tumor effect | tumor regression effect is achieved in some mouse tumor models
